Source: PubChem BioAssay AID977614 (Broad Institute, 2014)
Activity calls are given as the source filed them.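 How the source made its calls: active means parasite count per well reduced by over 3 SD from the mean, with host cell number above 80% of untreated; inactive means the rest.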

What follows are compounds tested on L. donovani amastigotes in THP-1 macrophages, DAPI imaging, 72 h (assay: L. donovani intracellular amastigote growth inhibitors, imaging, THP-1 host macrophages, single concentration (AID 977614);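 further: signal is the parasite per host cell ratio from DAPI stained kinetoplasts and nuclei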).

| Structure (SMILES) | AC50 |
| --- | --- |
| COc1ccc(C(=O)N2C[C@H]3[C@@H](c4ccccc42)[C@@H](CO)N3C(=O)Cc2ccccn2)cc1 | > 10 µM (inactive) |
| O=C(c1ccccc1F)N1C[C@@H]2[C@H](c3ccccc31)[C@H](CO)N2Cc1ccc2c(c1)OCO2 | > 10 µM (inactive) |
| C/C=C/c1ccc([C@@H]2[C@H](CO)N[C@H]2CN(CC)C(=O)CN2CCOCC2)cc1 | > 10 µM (inactive) |
| CC(C)NC(=O)N1[C@H](CO)[C@@H]2c3ccccc3NC[C@@H]21 | > 10 µM (inactive) |
| C[C@@H]1CN([C@@H](C)CO)C(=O)CCCn2nncc2CO[C@@H]1CN(C)C(=O)Nc1ccc(-c2cccs2)cc1 | > 10 µM (inactive) |
| CC(C)CNC[C@@H]1[C@@H](c2ccccc2)[C@@H](CO)N1Cc1ccc(F)cc1 | > 10 µM (inactive) |
| CN(C)CC(=O)N1[C@@H](CO)[C@@H]2c3ccccc3N(C(=O)Cc3ccccc3)C[C@@H]21 | > 10 µM (inactive) |
| C[C@@H]1CN([C@H](C)CO)C(=O)CCCn2nncc2CO[C@H]1CN(C)Cc1cccc(C(F)(F)F)c1 | > 10 µM (inactive) |
| C[C@@H]1CN([C@H](C)CO)C(=O)CCCn2cc(nn2)CO[C@H]1CN(C)C(=O)Nc1cccc2ccccc12 | > 10 µM (inactive) |
| COCCN(C[C@H]1N[C@H](CO)[C@@H]1c1ccc(-c2cccc(C#N)c2)cc1)C(C)=O | > 10 µM (inactive) |
| C[C@H]1CN([C@@H](C)CO)C(=O)CCCn2nncc2CO[C@H]1CN(C)Cc1ccccc1C(=O)O | > 10 µM (inactive) |
| CC(=O)N1C[C@@H]2[C@H](c3ccccc31)[C@H](CO)N2Cc1ccc(Cl)cc1 | > 10 µM (inactive) |
| CC(=O)NC[C@@H]1[C@@H](c2ccc(C3=CCCC3)cc2)[C@H](CO)N1Cc1cccnc1 | > 10 µM (inactive) |
| O=S(=O)(NC[C@@H]1[C@@H](c2ccccc2)[C@H](CO)N1CC1CC1)c1ccccc1 | > 10 µM (inactive) |
| C[C@H](CO)N1C[C@H](C)[C@@H](CN(C)C(=O)Nc2ccnc(N3CCOCC3)c2)OCc2cnnn2CCCC1=O | > 10 µM (inactive) |
| O=C(CN1CCOCC1)NC[C@@H]1N[C@@H](CO)[C@@H]1c1ccc(-c2ccccc2)cc1 | > 10 µM (inactive) |
| O=C(c1ccccn1)N1C[C@H]2[C@@H](c3ccccc31)[C@H](CO)N2C(=O)Nc1ccccc1Cl | > 10 µM (inactive) |
| C[C@H]1CN([C@@H](C)CO)C(=O)CCCn2nncc2CO[C@H]1CN(C)S(=O)(=O)c1ccccc1C#N | > 10 µM (inactive) |
| COCC(=O)N1C[C@@H]2[C@H](c3ccccc31)[C@H](CO)N2C(=O)c1ccccc1F | > 10 µM (inactive) |
| O=C(CN1CCOCC1)N1[C@H](CO)[C@H]2c3ccccc3NC[C@H]21 | > 10 µM (inactive) |
| CN1[C@H](CO)[C@@H]2c3ccccc3N(C(=O)C3CCCCC3)C[C@@H]21 | > 10 µM (inactive) |
| CCC(=O)N1[C@H](CO)[C@@H](c2ccccc2)[C@@H]1CN(CC)C(=O)c1cccc(F)c1 | > 10 µM (inactive) |
| C/C=C/c1ccc([C@H]2[C@@H](CO)N(CCC)[C@H]2CNC(=O)CN2CCOCC2)cc1 | > 10 µM (inactive) |
| C[C@H]1CN([C@@H](C)CO)C(=O)CCCn2nncc2CO[C@@H]1CN(C)S(=O)(=O)c1ccc(Oc2ccccc2)nc1 | > 10 µM (inactive) |
| CN1C[C@H]2[C@@H](c3ccccc31)[C@@H](CO)N2C(=O)c1cccnc1 | > 10 µM (inactive) |
| COCC(=O)N(C[C@@H]1[C@@H](c2ccccc2)[C@H](CO)N1C(=O)NC(C)C)C(C)C | > 10 µM (inactive) |

| Structure (SMILES) | AC50 |
| --- | --- |
| O=C(Cc1ccccc1)N1C[C@H]2[C@@H](c3ccccc31)[C@H](CO)N2S(=O)(=O)c1ccccc1 | > 10 µM (inactive) |
| O=C(Nc1ccccc1F)N1C[C@@H]2[C@H](c3ccccc31)[C@@H](CO)N2C(=O)Cc1cccnc1 | > 10 µM (inactive) |
| C/C=C/c1ccc([C@H]2[C@@H](CO)N(S(=O)(=O)CC)[C@@H]2CN(C)C(=O)CC)cc1 | > 10 µM (inactive) |
| O=C(c1ccccn1)N1C[C@@H]2[C@H](c3ccccc31)[C@H](CO)N2C(=O)Nc1ccccc1Cl | > 10 µM (inactive) |
| C[C@@H]1CN([C@@H](C)CO)C(=O)CCCn2nncc2CO[C@H]1CN(C)S(=O)(=O)c1ccc(Oc2ccccc2)nc1 | > 10 µM (inactive) |
| CCC(=O)N1[C@H](CO)[C@H](c2ccc(C3=CCCC3)cc2)[C@@H]1CNC1CCCCC1 | > 10 µM (inactive) |
| O=C(C1CC1)N1C[C@@H]2[C@H](c3ccccc31)[C@@H](CO)N2C(=O)c1ccccc1 | > 10 µM (inactive) |
| CC(C)NC(=O)N1[C@@H](CO)[C@H](c2ccccc2)[C@@H]1CN(C)C(=O)c1cccnc1 | > 10 µM (inactive) |
| C[C@H]1CN([C@@H](C)CO)C(=O)CCCn2nncc2CO[C@H]1CN(C)C(=O)Nc1ccnc(N2CCOCC2)c1 | > 10 µM (inactive) |
| CC(=O)N1[C@@H](CO)[C@H](c2ccccc2)[C@@H]1CNC(=O)CN1CCOCC1 | > 10 µM (inactive) |
| C[C@H](CO)N1C[C@H](C)[C@@H](CN(C)Cc2cccc(C(F)(F)F)c2)OCc2cnnn2CCCC1=O | > 10 µM (inactive) |
| C[C@@H]1CN([C@@H](C)CO)C(=O)CCCn2nncc2CO[C@H]1CN(C)C(=O)NC1CCCC1 | > 10 µM (inactive) |
| O=C(CC1CC1)NC[C@H]1N[C@H](CO)[C@@H]1c1ccc(-c2ccc(F)cc2)cc1 | > 10 µM (inactive) |
| C[C@H](CO)N1C[C@H](C)[C@H](CN(C)C(=O)NC2CCCC2)OCc2cnnn2CCCC1=O | > 10 µM (inactive) |
| CCN(C[C@H]1[C@H](c2ccccc2)[C@H](CO)N1C(=O)COC)S(C)(=O)=O | > 10 µM (inactive) |
| C[C@@H]1CN([C@H](C)CO)C(=O)CCCn2nncc2CO[C@H]1CN(C)C(=O)Oc1cccc2ccccc12 | > 10 µM (inactive) |
| CCCNC(=O)N1[C@H](CO)[C@@H]2c3ccccc3N(C(=O)Nc3cccc(Cl)c3)C[C@@H]21 | > 10 µM (inactive) |
| COCC(=O)N1C[C@@H]2[C@H](c3ccccc31)[C@@H](CO)N2Cc1cc(F)ccc1F | > 10 µM (inactive) |
| O=C(c1ccncc1)N1C[C@H]2[C@@H](c3ccccc31)[C@@H](CO)N2C(=O)CN1CCOCC1 | > 10 µM (inactive) |
| COCC(=O)N1[C@@H]2CN(C(=O)c3cccnc3)c3ccccc3[C@@H]2[C@@H]1CO | > 10 µM (inactive) |
| O=C(c1ccc2c(c1)OCO2)N1C[C@@H]2[C@H](c3ccccc31)[C@H](CO)N2Cc1cccnc1 | > 10 µM (inactive) |
| C[C@@H]1CN([C@H](C)CO)C(=O)CCCn2nncc2CO[C@H]1CN(C)CC1CCCCC1 | > 10 µM (inactive) |
| COCC(=O)N1[C@H](CO)[C@H]2c3ccccc3N(C(=O)Nc3ccccc3Cl)C[C@H]21 | > 10 µM (inactive) |
| CC(=O)N1[C@H](CNC(=O)CN(C)C)[C@@H](c2ccc(C3=CCCCC3)cc2)[C@@H]1CO | > 10 µM (inactive) |
| CC(C)N(C[C@@H]1[C@@H](c2ccccc2)[C@H](CO)N1S(C)(=O)=O)C(=O)CN(C)C | > 10 µM (inactive) |
| C[C@H](CO)N1C[C@H](C)[C@H](CN(C)S(=O)(=O)c2ccc(-n3cccn3)cc2)OCc2cn(nn2)CCCC1=O | > 10 µM (inactive) |

| Structure (SMILES) | AC50 |
| --- | --- |
| O=C(c1ccccc1F)N1C[C@H]2[C@@H](c3ccccc31)[C@@H](CO)N2Cc1ccc2c(c1)OCO2 | > 10 µM (inactive) |
| C[C@H]1CN([C@@H](C)CO)C(=O)CCCn2nncc2CO[C@H]1CN(C)C(=O)Nc1ccc2c(c1)OCCO2 | > 10 µM (inactive) |
| Cc1noc(C)c1NC(=O)N(C)C[C@@H]1OCc2cn(nn2)CCCC(=O)N([C@H](C)CO)C[C@@H]1C | > 10 µM (inactive) |
| CCNC[C@@H]1[C@H](c2ccccc2)[C@H](CO)N1C(=O)Cc1ccccn1 | > 10 µM (inactive) |
| CN1C[C@@H]2[C@H](c3ccccc31)[C@@H](CO)N2Cc1ccccc1Cl | > 10 µM (inactive) |
| COc1ccccc1NC(=O)N1C[C@@H]2[C@H](c3ccccc31)[C@H](CO)N2Cc1ccc2c(c1)OCO2 | > 10 µM (inactive) |
| CCC(=O)N1[C@H](CO)[C@H](c2ccc(C#CC(C)(C)O)cc2)[C@@H]1CN(C)C(C)=O | > 10 µM (inactive) |
| COc1ccccc1S(=O)(=O)N(C)C[C@H]1OCc2cn(nn2)CCCC(=O)N([C@H](C)CO)C[C@H]1C | > 10 µM (inactive) |
| CN1[C@@H](CO)[C@@H]2c3ccccc3N(C(=O)Nc3cc(F)ccc3F)C[C@@H]21 | > 10 µM (inactive) |
| C/C=C/c1ccc([C@H]2[C@@H](CO)N(S(C)(=O)=O)[C@@H]2CN(C(C)=O)C(C)C)cc1 | > 10 µM (inactive) |
| O=C(Nc1ccccc1Cl)N1C[C@H]2[C@@H](c3ccccc31)[C@@H](CO)N2C(=O)c1cccnc1 | > 10 µM (inactive) |
| C/C=C/c1ccc([C@H]2[C@@H](CO)N(C(=O)C3CC3)[C@H]2CNC(=O)NC(C)C)cc1 | > 10 µM (inactive) |
| C[C@H](CO)N1C[C@H](C)[C@H](CN(C)C(=O)Oc2cccc3ccccc23)OCc2cnnn2CCCC1=O | > 10 µM (inactive) |
| CNC[C@H]1OCc2cn(nn2)CCCC(=O)N([C@@H](C)CO)C[C@H]1C | > 10 µM (inactive) |
| C[C@@H]1CN([C@H](C)CO)C(=O)CCCn2cc(nn2)CO[C@H]1CN(C)C(=O)NC1CCCCC1 | > 10 µM (inactive) |
| O=C(Nc1ccc(F)cc1)N1C[C@@H]2[C@H](c3ccccc31)[C@@H](CO)N2Cc1ccccc1Cl | > 10 µM (inactive) |
| C/C=C/c1ccc([C@H]2[C@H](CO)N[C@H]2CN(CC(C)C)C(=O)c2ccccn2)cc1 | > 10 µM (inactive) |
| C[C@H]1CN([C@@H](C)CO)C(=O)CCCn2cc(nn2)CO[C@H]1CN(C)C(=O)NC1CCCCC1 | > 10 µM (inactive) |
| CN1[C@H](CO)[C@H]2c3ccccc3NC[C@H]21 | > 10 µM (inactive) |
| O=C(CC(F)(F)F)N1C[C@H]2[C@@H](c3ccccc31)[C@@H](CO)N2Cc1cccnc1 | > 10 µM (inactive) |
| C[C@@H]1CN([C@@H](C)CO)C(=O)CCCn2nncc2CO[C@@H]1CN(C)Cc1ccc2cccnc2c1 | > 10 µM (inactive) |
| OC[C@H]1[C@@H]2c3ccccc3NC[C@@H]2N1Cc1cccnc1 | > 10 µM (inactive) |
| CCS(=O)(=O)N1[C@H](CO)[C@H](c2ccccc2)[C@@H]1CN(C)Cc1ccccn1 | > 10 µM (inactive) |
| CC(=O)N1[C@H](CO)[C@H]2c3ccccc3N(C(=O)c3ccc(F)cc3)C[C@H]21 | > 10 µM (inactive) |
| CCNC[C@@H]1[C@@H](c2ccccc2)[C@@H](CO)N1C(=O)Cc1ccccn1 | > 10 µM (inactive) |
